From patent US20140100419A1, “ACTIVE VITAMIN D OR ANALOGS THEREOF FOR USE IN IN VIVO OR IN VITRO FERTILIZATION” (priority 2011, published 2014)

Assays:
VDR-ap = target: T1, VDR-ap (Homo sapiens, UniProt P11473); settings: cited from earlier work
T1 sequence (P11473 1-427): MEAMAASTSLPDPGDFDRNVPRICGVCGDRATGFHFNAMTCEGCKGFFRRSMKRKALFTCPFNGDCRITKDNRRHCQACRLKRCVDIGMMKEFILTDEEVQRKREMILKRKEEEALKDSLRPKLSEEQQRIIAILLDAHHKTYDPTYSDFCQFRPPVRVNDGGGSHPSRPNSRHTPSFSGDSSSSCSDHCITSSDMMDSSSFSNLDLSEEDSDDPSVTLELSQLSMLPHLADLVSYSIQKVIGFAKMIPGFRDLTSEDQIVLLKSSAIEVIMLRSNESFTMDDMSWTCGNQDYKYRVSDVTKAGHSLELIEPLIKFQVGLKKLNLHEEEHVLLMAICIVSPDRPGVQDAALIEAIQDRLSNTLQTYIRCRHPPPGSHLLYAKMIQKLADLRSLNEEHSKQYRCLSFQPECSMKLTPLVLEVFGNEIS

[1] = test system: zona pellucida (ZP) of human oocytes; assay: Human sperm-zona pellucida interaction (sperm-egg binding) test; assay type: cell-based; settings: 10 nM JN
Excerpt: We used the Human sperm-zona pellucida interaction test that is designed to determine the capacity of sperm to interact with the zona pellucida (ZP) of human oocytes and serves thus as a test for evaluating fertility potential of human spermatozoa. The tests provide important diagnostic information about sperm fertilising ability and we used a modified version of the test developed by Liu and Baker (Liu and Baker hum reprod 1999 Defective sperm-zona pellucida interaction: a major cause of failure of fertilization in clinical in-vitro fertilization).
If the oocyte had sperm bound to the ZP from the IVF insemination, these were removed by aspiration using a fine glass pipette with an inner diameter (120 μm) slightly smaller than the oocyte diameter. […] Oocytes with >10 sperm penetrating the ZP were not used. Also degenerate, activated or morphologically abnormal oocytes were not used for the sperm-ZP interaction test. Oocytes were pooled from several patients and used for the test on the same day or kept in the incubator and used within the next 20 days. Between 15-30 oocytes was placed in 1 ml salt solution (storage 2-4 weeks). Salt-stored human oocytes were washed with gamete buffer (COOK) with four changes in 3 hours before they were used for the sperm-egg binding test.
Semen samples from five donors were used. […] The washed sperm pellet was resuspended with sEBSS to a sperm concentration of 2×10^6/ml for the ZP-interaction test. For the assessment of the sperm concentration the samples were diluted following the manufactures instruction and subsequently determined using SP-100 (Chemometec).
For the sperm-ZP interaction tests, either high quality sperm or total sperm sample (2×10^6) in 0.5 ml of medium (+/−1 nM Calcitriol) were incubated with three oocytes for 2 h at 37° C. in 5% CO2 in air. After incubation, the oocytes were transferred to sEBSS and washed by repeated aspiration with a glass pipette (inside diameter approximately 250 μm) to dislodge sperm loosely adhering to the surface of the ZP. Sperm binding to all oocytes was assessed.

human spermatozoa = assay: Sperm motility of washed spermatozoa with or without percoll gradient centrifugation; assay type: cell-based; settings: 10 nM JN

C[C@H](CCCC(C)(C)O)[C@H]1CC[C@H]2C3=CC=C4C[C@@H](O)C[C@H](O)[C@@]4(C)[C@@H]3CC[C@]12C [JN, 1α,25(OH)2-lumisterol]
affinity for VDR-ap (VDR-ap): same affinity as 1,25(OH)2D3 | mean number of spermatozoa bound to each oocyte ([1]; 1 donor (vehicle mean 37)): 65 | difference in sperm-egg binding versus vehicle ([1]; separated by percoll gradient centrifugation): 300% | average improvement of sperm-egg binding versus vehicle ([1]; without percoll gradient centrifugation): 11% | motile sperm (human spermatozoa; 60 minutes, isolated by percoll gradient centrifugation (from 69%)): 72% | sperm motility (mean) (human spermatozoa; 60 minutes, no percoll centrifugation (vehicle mean 34)): 46 | change in proportion of motile sperm (human spermatozoa; 24 hours at room temperature, with and without percoll, not substantially different from vehicle): modest decrease
